Data as given in patent publication US20180147301A1, “SOLID ORAL COMPOSITION CONTAINING DYES” (COSMO TECHNOLOGIES LTD., priority 2016, published 2018).

How the values were obtained:
CYP 2B6 = target: T1, CYP 2B6 (Homo sapiens, UniProt P20813)
T1 sequence (P20813 1-491): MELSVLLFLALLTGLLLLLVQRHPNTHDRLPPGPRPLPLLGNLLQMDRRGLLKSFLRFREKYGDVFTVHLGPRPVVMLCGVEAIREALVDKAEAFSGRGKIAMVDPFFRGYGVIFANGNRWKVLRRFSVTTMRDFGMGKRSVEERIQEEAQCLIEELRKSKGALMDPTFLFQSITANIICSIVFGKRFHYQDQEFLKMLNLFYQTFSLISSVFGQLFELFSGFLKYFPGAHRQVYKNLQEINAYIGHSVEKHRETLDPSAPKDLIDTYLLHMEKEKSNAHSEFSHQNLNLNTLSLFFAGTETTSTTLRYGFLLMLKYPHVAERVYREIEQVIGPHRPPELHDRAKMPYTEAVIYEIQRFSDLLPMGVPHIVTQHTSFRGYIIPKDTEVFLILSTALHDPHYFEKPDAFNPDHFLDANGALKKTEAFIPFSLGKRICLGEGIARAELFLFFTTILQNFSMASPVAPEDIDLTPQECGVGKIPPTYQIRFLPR

CYP 2C9 = CYP 2C9 (Homo sapiens, UniProt P11712)
P-gp [1] = target: T2, P-gp (Homo sapiens, UniProt P08183); assay: in vitro transporter inhibition study; type: in vitro ADME
CYP 2C19 = CYP 2C19 (Homo sapiens, UniProt P33261)
CYP 2D6 = CYP 2D6 (Homo sapiens, UniProt P10635)
P-gp [2] = target: T2, P-gp; assay: in vitro transporter substrate study; type: in vitro ADME
CYP 2C8 = target: T3, CYP 2C8 (Homo sapiens, UniProt P10632)
T3 sequence (P10632 1-490): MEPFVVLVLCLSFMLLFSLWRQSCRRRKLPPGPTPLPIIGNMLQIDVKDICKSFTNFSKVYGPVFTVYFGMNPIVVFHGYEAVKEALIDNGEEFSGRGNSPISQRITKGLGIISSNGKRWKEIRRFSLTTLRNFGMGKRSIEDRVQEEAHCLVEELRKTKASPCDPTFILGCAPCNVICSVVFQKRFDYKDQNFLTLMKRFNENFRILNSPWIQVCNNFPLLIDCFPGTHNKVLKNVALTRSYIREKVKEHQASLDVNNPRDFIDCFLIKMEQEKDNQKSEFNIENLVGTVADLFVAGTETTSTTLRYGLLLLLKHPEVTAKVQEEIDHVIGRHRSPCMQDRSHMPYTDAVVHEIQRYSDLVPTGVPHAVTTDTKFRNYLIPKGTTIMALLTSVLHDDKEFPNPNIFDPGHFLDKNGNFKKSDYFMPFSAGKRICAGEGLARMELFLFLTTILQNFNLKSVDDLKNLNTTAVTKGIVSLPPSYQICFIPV

CYP 1A2 = target: T4, CYP 1A2 (Homo sapiens, UniProt P05177)
T4 sequence (P05177 1-516): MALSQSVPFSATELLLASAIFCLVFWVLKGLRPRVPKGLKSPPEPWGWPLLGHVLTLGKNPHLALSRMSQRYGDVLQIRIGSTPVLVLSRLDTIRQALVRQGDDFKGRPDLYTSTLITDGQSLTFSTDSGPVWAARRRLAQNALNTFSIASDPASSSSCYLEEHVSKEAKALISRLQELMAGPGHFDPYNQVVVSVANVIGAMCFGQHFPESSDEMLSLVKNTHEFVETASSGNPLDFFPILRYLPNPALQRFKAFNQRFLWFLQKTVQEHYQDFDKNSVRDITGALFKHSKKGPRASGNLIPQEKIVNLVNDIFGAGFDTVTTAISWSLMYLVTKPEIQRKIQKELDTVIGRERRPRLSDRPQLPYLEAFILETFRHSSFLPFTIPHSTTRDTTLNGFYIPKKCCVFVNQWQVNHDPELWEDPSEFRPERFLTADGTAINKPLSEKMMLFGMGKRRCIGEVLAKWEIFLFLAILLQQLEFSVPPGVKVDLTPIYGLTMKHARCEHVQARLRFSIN

T2 sequence (P08183 whole entry): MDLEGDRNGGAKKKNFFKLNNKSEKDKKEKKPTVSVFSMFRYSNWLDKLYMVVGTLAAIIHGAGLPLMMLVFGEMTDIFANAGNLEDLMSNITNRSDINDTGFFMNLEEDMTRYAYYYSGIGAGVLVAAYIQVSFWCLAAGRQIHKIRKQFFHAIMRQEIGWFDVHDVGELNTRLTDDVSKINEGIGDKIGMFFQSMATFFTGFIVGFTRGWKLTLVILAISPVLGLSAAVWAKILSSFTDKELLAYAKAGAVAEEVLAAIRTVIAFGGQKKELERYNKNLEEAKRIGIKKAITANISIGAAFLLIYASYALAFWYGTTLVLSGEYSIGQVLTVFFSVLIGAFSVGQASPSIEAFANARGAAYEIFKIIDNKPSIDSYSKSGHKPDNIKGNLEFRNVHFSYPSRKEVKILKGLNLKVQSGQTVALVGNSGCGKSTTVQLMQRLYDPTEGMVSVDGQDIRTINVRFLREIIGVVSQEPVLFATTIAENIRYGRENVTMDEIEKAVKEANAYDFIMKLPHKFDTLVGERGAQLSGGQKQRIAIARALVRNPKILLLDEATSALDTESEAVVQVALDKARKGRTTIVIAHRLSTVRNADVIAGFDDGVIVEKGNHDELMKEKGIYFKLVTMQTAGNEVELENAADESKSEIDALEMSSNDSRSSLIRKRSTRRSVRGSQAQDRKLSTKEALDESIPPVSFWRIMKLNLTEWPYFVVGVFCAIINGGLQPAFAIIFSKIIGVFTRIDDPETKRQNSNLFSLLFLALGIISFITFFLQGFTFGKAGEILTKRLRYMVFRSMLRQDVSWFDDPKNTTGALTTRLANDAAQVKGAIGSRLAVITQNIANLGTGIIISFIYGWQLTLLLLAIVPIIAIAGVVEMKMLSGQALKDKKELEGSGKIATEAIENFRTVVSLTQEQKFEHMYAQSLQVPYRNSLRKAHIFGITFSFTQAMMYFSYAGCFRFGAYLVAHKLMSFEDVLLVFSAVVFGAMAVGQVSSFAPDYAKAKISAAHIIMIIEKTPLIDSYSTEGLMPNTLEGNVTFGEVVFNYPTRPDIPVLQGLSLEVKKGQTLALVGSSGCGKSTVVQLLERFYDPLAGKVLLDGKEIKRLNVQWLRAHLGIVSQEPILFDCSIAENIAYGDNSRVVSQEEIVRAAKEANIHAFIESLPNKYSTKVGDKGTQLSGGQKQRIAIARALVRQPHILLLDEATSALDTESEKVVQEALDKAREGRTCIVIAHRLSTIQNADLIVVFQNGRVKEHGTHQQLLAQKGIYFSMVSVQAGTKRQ
Chain of CYP 2C9 (P11712 whole entry): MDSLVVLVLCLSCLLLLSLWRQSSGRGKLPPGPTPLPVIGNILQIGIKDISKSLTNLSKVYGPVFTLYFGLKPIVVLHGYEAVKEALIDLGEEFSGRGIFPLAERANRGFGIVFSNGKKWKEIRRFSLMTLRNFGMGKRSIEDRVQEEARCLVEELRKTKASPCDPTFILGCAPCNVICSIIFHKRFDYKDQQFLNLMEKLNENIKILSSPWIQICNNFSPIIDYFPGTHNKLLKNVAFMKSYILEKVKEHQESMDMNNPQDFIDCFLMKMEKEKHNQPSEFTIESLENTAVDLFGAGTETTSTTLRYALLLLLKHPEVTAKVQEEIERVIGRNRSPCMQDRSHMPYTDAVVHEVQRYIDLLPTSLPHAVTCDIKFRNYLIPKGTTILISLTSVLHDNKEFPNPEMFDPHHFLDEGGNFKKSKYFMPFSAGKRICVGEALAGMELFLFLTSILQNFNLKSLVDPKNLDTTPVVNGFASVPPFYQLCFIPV
Chain of CYP 2D6 (P10635 whole entry): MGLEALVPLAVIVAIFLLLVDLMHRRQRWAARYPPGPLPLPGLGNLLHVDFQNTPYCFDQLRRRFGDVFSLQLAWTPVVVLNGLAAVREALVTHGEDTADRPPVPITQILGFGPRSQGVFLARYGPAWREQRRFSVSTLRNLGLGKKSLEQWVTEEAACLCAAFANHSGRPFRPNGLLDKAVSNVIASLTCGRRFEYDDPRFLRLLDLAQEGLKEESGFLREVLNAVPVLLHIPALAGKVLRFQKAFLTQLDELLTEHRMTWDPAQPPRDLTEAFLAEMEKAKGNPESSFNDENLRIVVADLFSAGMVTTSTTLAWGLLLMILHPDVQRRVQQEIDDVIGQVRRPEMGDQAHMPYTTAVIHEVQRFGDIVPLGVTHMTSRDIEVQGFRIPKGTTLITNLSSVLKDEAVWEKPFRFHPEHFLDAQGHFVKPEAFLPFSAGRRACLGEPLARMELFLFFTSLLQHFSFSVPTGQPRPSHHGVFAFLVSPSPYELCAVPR
Chain of CYP 2C19 (P33261 whole entry): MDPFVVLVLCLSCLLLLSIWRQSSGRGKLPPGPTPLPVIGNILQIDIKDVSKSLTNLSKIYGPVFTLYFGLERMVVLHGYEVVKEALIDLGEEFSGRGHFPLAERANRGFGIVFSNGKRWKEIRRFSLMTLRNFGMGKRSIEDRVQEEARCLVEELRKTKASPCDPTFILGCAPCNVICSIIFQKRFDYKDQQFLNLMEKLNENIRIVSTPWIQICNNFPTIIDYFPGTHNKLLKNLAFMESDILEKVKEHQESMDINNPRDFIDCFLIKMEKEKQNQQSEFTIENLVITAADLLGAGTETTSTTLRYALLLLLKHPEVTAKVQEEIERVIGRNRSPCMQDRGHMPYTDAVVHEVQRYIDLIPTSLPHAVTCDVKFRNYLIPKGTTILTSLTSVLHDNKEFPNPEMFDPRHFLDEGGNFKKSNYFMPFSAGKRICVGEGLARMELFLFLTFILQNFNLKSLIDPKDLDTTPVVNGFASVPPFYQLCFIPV

CN(C)c1ccc2nc3ccc(=[N+](C)C)cc-3sc2c1 [Methylene blue, Methylthioninium Chloride (Methylene Blue)]
possible substrate: substrate of membrane transport protein P-gp (P-gp [2])
inhibits: inhibition of CYP isozyme 2B6 (CYP 2B6) | inhibition of CYP isozyme 2C9 (CYP 2C9) | inhibition of CYP isozyme 2C19 (CYP 2C19) | inhibition of CYP isozyme 2D6 (CYP 2D6) | inhibition of CYP isozyme 2C8 (CYP 2C8) | inhibition of CYP isozyme 3A4/5 (CYP 3A4/5) | inhibition of CYP isozyme 1A2 (CYP 1A2)
weak inhibitor: inhibitor of P-gp (P-gp [1])
